Experimental data reported in PMC3411462, “Long-acting κ opioid antagonists nor-BNI, GNTI and JDTic: pharmacokinetics in mice and lipophilicity” (BMC Pharmacology, 2012).
Like-named read-outs stand apart in the source and are kept apart here.

Columns and labels:
[1] = Brain and plasma concentrations in mice after intraperitoneal administration (LC-MS-MS), non-compartmental analysis; type: in vivo; details: for concentration at 0.5 h / concentration at 1 h / concentration at 2 h / half-life / AUC(0-inf) / concentration at 4 h / concentration at 24 h / CL/F / Vd/F: 10 mg/kg; for half-life: read-out: t1/2 (converted); for k el: read-out: Lambda_z (converted)
Description: Doses are reported by weight of the specified salt. […] Body mass was measured to ±0.1 g.
Mice were sacrificed by cervical dislocation, then decapitated for collection of brain and blood samples. Trunk blood was collected in 1.5 mL polypropylene micro-centrifuge tubes, shaken with a few crystals of EDTA and cooled in ice-water. Samples were centrifuged at 14,000 rpm (revolutions per minute) for 15 minutes at 3 °C, then stored in glass sample vials at −20 °C until analysis. Brains were removed and immersed for 30 seconds in 2-methylbutane over dry ice, then stored in polypropylene tubes at −20 °C until sample preparation. Sample tubes were thawed in ice-water, distilled water was added (2:1 by weight) and the brain homogenized with a probe sonicator for 3 minutes over ice-water (Fisher Sonic Dismembrator 300 at 35% power). The probe was rinsed with ethanol and distilled water between samples. Brain homogenate was stored in glass sample vials at −20 °C until analysis by LC-MS-MS.
Drug concentrations (ng mL^-1) refer to the free base, and were measured by liquid chromatography-tandem mass spectrometry (LC-MS-MS) as described previously. Briefly, samples were shaken with 3 volumes of methanol and centrifuged at 3000 g. Aliquots of the supernatants were diluted with 5 volumes of water containing an appropriate internal standard. Extracts from in vitro and in vivo experiments were analyzed by multiple reaction monitoring on an API3000 or API4000 LC-MS-MS system with electrospray ion source, controlled and analyzed using the Analyst software package (Applied Biosystems, Foster City, CA). Chromatography was conducted on a Sprite Armor C18 analytical column (20 × 2.1 mm, 10 μm particle size, Analytical Sales and Products, Pompton Plains, NJ) with a 0.5 μm PEEK guard filter. Compounds were eluted with a gradient from 2% to 95% acetonitrile in water, both containing 0.1% formic acid. Compounds were detected in positive ion mode, tuned to the mass transition with the largest intensity. Analyte concentrations were determined by comparison of analyte:internal standard peak area ratios to those of standards prepared in the appropriate matrices.
For calculation of mean concentrations, the earliest values below the MRC were substituted by MRC ÷ 2, as recommended elswhere. Pharmacokinetic parameters were calculated from mean concentrations using PKSolver, employing non-compartmental analysis for extravascular administration. Curves in figures were fitted using Origin 8.5 (OriginLab, Northampton, MA) using 2-compartment models. Confidence intervals and two-tailed p values (unpaired t test) were calculated using Graphpad Quickcalcs. One outlier was identified using Grubbs' test (p < 0.01) and excluded from the analysis; see Additional file 1.

[2] = tested on: mice; experiment: Fatalities and behavioral effects after i.p. administration; details: 100 mg kg^-1
Description: Experiments were performed between 10 am and 6 pm. Mice were not used in other experiments, or exposed to other drugs, before testing began.
Doses are reported by weight of the specified salt. Intraperitoneal injections were administered in distilled water vehicle (10 mL kg^-1). Body mass was measured to ±0.1 g. Some values were inadvertently measured on a low-precision balance (± 2.5 g); these timepoints were replicated at ±0.1 g.

[3] = male, Swiss-Webster, mouse, brain, ip, 10 mg/kg i.p., read-out: mean (brain)
[4] = male, Swiss-Webster, mouse, ip, brain NCA, 10 mg/kg i.p.
[5] = male, Swiss-Webster, mouse, ip, plasma NCA, 10 mg/kg i.p.
[6] = male, Swiss-Webster, mouse, plasma, intraperitoneal, read-out: Conc (plasma, NCA input)
[7] = male, Swiss-Webster, mouse, plasma, ip, 10 mg/kg i.p., read-out: mean (plasma)
[8] = male, Swiss-Webster, mouse, plasma, ip, 10 mg/kg i.p., individual mice, read-out: [drug],plasma (free base equivalent)

## CC(C)[C@@H](CN1CC[C@@](C)(c2cccc(O)c2)[C@@H](C)C1)NC(=O)[C@H]1Cc2ccc(O)cc2CN1 [JDTic, (3R)-7-Hydroxy-N-((1S)-1-{[(3R,4R)-4-(3-hydroxyphenyl)-3,4-dimethyl-1-piperidinyl]methyl}-2-methylpropyl)-1,2,3,4-tetrahydro-3-isoquinolinecarboxamide]
[1]; [3]
  concentration at 0.5 h: 71.1 ng/g
  concentration at 1 h: 61.1 ng/g
[1]; male, Swiss-Webster, mouse, brain, ip, 10 mg/kg i.p., individual mice, read-out: [drug],brain (free base equivalent)
  concentration at 2 h: 30 ng/g
[1]; male, Swiss-Webster, mouse, brain, ip, 10 mg/kg i.p., <MRC substituted by MRC/2, read-out: mean (brain)
  concentration at 2 h: 38.4 ng/g
[1]; male, Swiss-Webster, mouse, brain, ip, brain NCA, 10 mg/kg i.p.
  half-life: 220 h
[1]; male, Swiss-Webster, mouse, brain, ip, brain, 10 mg kg^-1 i.p., non-compartmental analysis, read-out: AUC 0–∞,brain
  AUC(0-inf): 10.3 µg·h/mL
[1]; male, Swiss-Webster, mouse, in vivo, ip, ·2HCl salts, 10 mg kg^-1 i.p., mice
  Tmax: 0.5 h
[1]; [4]
  AUC(0-t): 4.4 µg·h/mL
  Tmax: 0.5 h
  k el: 8.75e-07 s⁻¹
[1]; male, Swiss-Webster, mouse, ip, brain NCA, 10 mg/kg i.p., read-out: Cmax
  Cmax: 0.0711 µg/mL
[1]; [5]
  AUC(0-t): 0.866 µg·h/mL
  Tmax: 0.5 h
  k el: 3.75e-05 s⁻¹
[1]; male, Swiss-Webster, mouse, ip, plasma NCA, 10 mg/kg i.p., read-out: MRT 0-inf_obs
  MRT inf: 4.3 h
[1]; male, Swiss-Webster, mouse, ip, plasma, 10 mg kg^-1 i.p., mice, read-out: C max,p
  Cmax: 0.245 µg/mL
[1]; [6]
  concentration at 0.5 h: 0.245 µg/mL
  concentration at 1 h: 0.154 µg/mL
  concentration at 2 h: 0.0569 µg/mL
  concentration at 4 h: 0.0466 µg/mL
  concentration at 24 h: 0.003 µg/mL
[1]; [7]
  concentration at 0.5 h: 0.245 µg/mL
  concentration at 1 h: 0.154 µg/mL
  concentration at 2 h: 0.057 µg/mL
  concentration at 4 h: 0.047 µg/mL
[1]; [8]
  concentration at 2 h: 0.0423 µg/mL
  concentration at 24 h: 0.005 µg/mL
[1]; male, Swiss-Webster, mouse, plasma, ip, 10 mg/kg i.p., <MRC substituted by MRC/2, read-out: mean (plasma)
  concentration at 24 h: 0.003 µg/mL
[1]; male, Swiss-Webster, mouse, plasma, ip, plasma NCA, 10 mg/kg i.p., read-out: AUC 0-inf_obs
  AUC(0-inf): 0.888 µg·h/mL
[1]; male, Swiss-Webster, mouse, plasma, ip, plasma NCA, 10 mg/kg i.p., read-out: Cl/F_obs (converted)
  CL/F: 11.3 L/h/kg
[1]; male, Swiss-Webster, mouse, plasma, ip, plasma NCA, 10 mg/kg i.p., read-out: Vz/F_obs
  Vd/F: 83.3 L/kg
[1]; male, Swiss-Webster, mouse, plasma, ip, plasma NCA, 10 mg/kg i.p.
  half-life: 5.13 h
[1]; male, Swiss-Webster, mouse, plasma, ip, plasma, 10 mg kg^-1 i.p., non-compartmental analysis, read-out: AUC 0–∞,p
  AUC(0-inf): 0.888 µg·h/mL
[1]; male, Swiss-Webster, mouse, plasma, ip, plasma, 10 mg kg^-1 i.p., non-compartmental analysis, read-out: CL/F (converted)
  CL/F: 1.1 L/h/kg
[1]; male, Swiss-Webster, mouse, plasma, ip, plasma, 10 mg kg^-1 i.p., non-compartmental analysis, read-out: V z /F
  Vd/F: 83 L/kg
[1]; over 24 hours, 10 mg kg^-1 i.p.
  Decline of mean brain level: 56%
[1]; plasma NCA, 10 mg/kg i.p.
  AUMC 0-inf_obs: 3814.94 ng/ml*h^2
  Tlag: 0 h
[1]; same dose, 10 mg kg^-1 i.p.
  Maximal plasma concentration relative to those after nor-BNI and GNTI: less than 10%
[1]; unbound brain, 10 mg kg^-1 i.p., in vivo brain binding assumed at least 3-fold greater than homogenate
  C max,brain,u: < 4 nM
[1]; within 1 hour, 10 mg kg^-1 i.p.
  Decline of mean plasma concentration from peak: 37%
[1]; within 2 hours, 10 mg kg^-1 i.p.
  Decline of mean plasma concentration from peak: 77%
[1]; within 4 hours, 10 mg kg^-1 i.p.
  Decline of mean plasma concentration from peak: at least 80%
[2]
  Behavioral effects observed: Only mild behavioral effects, such as hiccup-like spasms and shivering
  Fatalities: no fatalities
